Reference: ChEMBL document CHEMBL2073778, “Identification of lactate as a driving force for prostanoid transport by prostaglandin transporter PGT” (Am J Physiol Renal Physiol, 2002)

Target: Solute carrier organic anion transporter family member 2A1 (Homo sapiens, UniProt Q92959)
Experiment: TP_TRANSPORTER: inhibition of PGE2 uptake in PGT-expressing HeLa cells
Assay type: functional, cell-based

Structure (SMILES): O=C[C@H](O)COP(=O)(O)O
- Ki: 15 mM

Structure (SMILES): O=C(OP(=O)(O)O)C(O)COP(=O)(O)O (configuration not stated)
- Ki: 57 mM

Structure (SMILES): O=P(O)(O)OC[C@H]1O[C@@H](O)[C@H](O)[C@@H](O)[C@@H]1O
- Ki: 31 mM

Structure (SMILES): C[C@@H](O)C(=O)O [D-LACTIC ACID]
- Ki: 48 mM

Structure (SMILES): O=P(O)(O)OC[C@H]1O[C@@](O)(COP(=O)(O)O)[C@@H](O)[C@@H]1O [FRUCTOSE 1,6-DIPHOSPHATE]
- Ki: 51 mM

Structure (SMILES): C=C(OP(=O)(O)O)C(=O)O [PHOSPHOENOLPYRUVATE]
- Ki: 13 mM

Structure (SMILES): CC(=O)C(=O)O [PYRUVATE]
- Ki: 26 mM
